Measured values as given in US9206159B2, “Piperazine-piperidine compounds as hepatitis C virus inhibitors” (Theravance Biopharma R&D IP, LLC, priority 2012, dated 2015).

Test system: HCV genotype 1a replicon cell line
Experiment: HCV Genotype 1a Replicon Assay
Type: cell-based, hepatitis C virus
Settings: Hepatitis C virus, Huh7.5 cell background, NS3-specific protease activity in lysates, 48 or 72 hours, read-out: Genotype 1a (pEC50 class) (converted)
Protocol: Assay 2: HCV Genotype 1a Replicon Assay
The HCV genotype 1a replicon cell line was obtained from Apath LLC (APC89; Huh7.5 cell background). This subgenomic replicon contains the N-terminus of the HCV core protein fused to the neomycin-resistance selectable marker. The EMCV IRES lies downstream and drives expression of the non-structural proteins NS3-NS5B. Compound potencies were determined using the NS3-specific protease activity in lysates as a measurement of compound inhibition of replicon levels.
Cells were grown at 37° C. in a 5% CO2 humidified incubator in DMEM (Invitrogen) with 10% FBS (HyClone), 1×NEAA (Invitrogen), 1× Pen-Strep (Invitrogen), and 850 μg/mL G418 (Invitrogen). On day 1 of the assay, cells were plated at 15,000 cells/well in black 96-well tissue culture plates (Costar) in 200 μL media lacking G418. Four hours later, once the cells had adhered, the media was removed and replaced with media (no G418) containing dose-responses of test compounds. Compounds were initially diluted in DMSO and then diluted another 200× in media to bring the final DMSO concentration down to 0.5%. The cells were incubated with test compounds for 48 or 72 hours. At the end of the incubation period, media and compound were removed from the plates.
To determine the NS3-specific protease activity in lysates, the cells were lysed at room temperature in 50 μL/well of 50 mM Hepes pH 7.5, 150 mM NaCl, 15% Glycerol, 0.15% Triton X-100, 10 mM DTT for 20 minutes with shaking. 50 μL of an NS3/4a protease-specific FRET substrate (Anaspec RET SI Cat#22991) was then added to the wells at a final concentration of 15 μM. The plates were incubated at 37° C. for 20 minutes, which corresponds to a timepoint at which the protease activity is still in the linear phase. Protease activity was determined by measuring fluorescence (Excitation: 340 nm; Emission: 509 nm).
To analyze the data, the fluorescence was plotted vs. the compound concentration, and EC50 values were determined from a 4-parameter robust fit model using GraphPad Prism software.

| SMILES | EC50 [nM] |
| --- | --- |
| COC(=O)N[C@H](C(=O)N1C[C@@H](C)C[C@H]1c1nc(-c2ccc(-c3ccc(NC(=O)N4CCN(C5CCN(C(=O)C6CC6)CC5)CC4)cc3OC(F)(F)F)cc2)c(F)[nH]1)C(C)C [Example 9] | < 0.1 |
| COC(=O)N[C@H](C(=O)N1CCC[C@H]1c1nc(-c2ccc(-c3ccc(NC(=O)N4CC5CCC(C4)N5C4CCN(C(=O)OC(C)(C)C)CC4)cc3OC(F)(F)F)cc2)c[nH]1)C(C)C [Example 8-2] | 0.1 to 1 |
| COC(=O)N[C@H](C(=O)N1C[C@@H](OC)C[C@H]1c1nc(-c2ccc(-c3ccc(NC(=O)N4CCN(C5CCN(C(=O)C6CCCC6(C)C)CC5)CC4)cc3OC(F)(F)F)cc2)c[nH]1)C(C)C (some centres unmarked) [Example 5-4] | 0.1 to 1 |
| COC(=O)N[C@H](C(=O)N1C[C@@H](C)C[C@H]1c1nc2c(ccc3cc(-c4ccc(NC(=O)N5CCN(C6CCN(C(=O)C7CCC7(C)C)CC6)CC5)cc4OC(F)(F)F)ccc32)[nH]1)C(C)C (some centres unmarked) [Example 6-3] | < 0.1 |
| COC(=O)N[C@H](C(=O)N1C[C@@H](C)C[C@H]1c1nc2c(ccc3cc(-c4ccc(NC(=O)N5CCN(C6CCN(C(=O)C(C)(C)CO)CC6)CC5)cc4OC(F)(F)F)ccc32)[nH]1)C1CCOCC1 [Example 7-3] | 0.1 to 1 |
| COC(=O)N[C@H](C(=O)N1CCC[C@H]1c1nc(-c2ccc(-c3ccc(NC(=O)N4CCN(C5CCN(C(=O)C6CC6)CC5)[C@@H](C)C4)cc3OC(F)(F)F)cc2)c[nH]1)C(C)C [Example 1, ((S)-1-{(S)-2-[4-(4′-{[(S)-4-(1-Cyclopropanecarbonyl-piperidin-4-yl)-3-methyl-piperazine-1-carbonyl]-amino}-2′-trifluoromethoxy-biphenyl-4-yl)-1H-imidazol-2-yl]-pyrrolidine-1-carbonyl}-2-methyl-propyl)-carbamic acid methyl ester] | 0.1 to 1 |
| COC(=O)N[C@H](C(=O)N1[C@@H](C)CC[C@H]1c1nc(-c2ccc(-c3ccc(NC(=O)N4CCN(C5CCN(C(=O)[C@H]6CC6(C)C)CC5)CC4)cc3OC(F)(F)F)cc2)c[nH]1)C(C)C [Example 8-5] | 0.1 to 1 |

Same assay, conditions: Huh7.5 cell background, NS3-specific protease activity in lysates, 48 or 72 hours

| SMILES | Genotype 1a (pEC50 class) |
| --- | --- |
| COC(=O)N[C@H](C(=O)N1C[C@@H](C)C[C@H]1c1nc(-c2ccc(-c3ccc(NC(=O)N4CCC(N5CCN(C(=O)[C@H]6CC6(C)C)CC5)CC4)cc3OC(F)(F)F)cc2)c[nH]1)C(C)C [Example 4-11] | C (C represents pEC50 between and 9 and about 10, (EC50 between 1 nM and 0.1 nM)) |
| COC(=O)NC(C(=O)N1CCCC1c1nc(-c2ccc(-c3ccc(NC(=O)N4CCN(C5CCN(C(=O)C6CC6)CC5)C(CO)C4)cc3OC(F)(F)F)cc2)c[nH]1)C(C)C (centres unmarked) [Example 1-44] | A (A represents a pEC50 value between 6 and 8 (EC50 between 1 μM and 10 nM)) |
| COC(=O)N[C@H](C(=O)N1C[C@@H](C)C[C@H]1c1nc(-c2ccc(-c3cc(F)c(NC(=O)N4CCC(N5CCN(C(=O)C6CC6)CC5)CC4)cc3OC(F)(F)F)cc2)c[nH]1)C(C)C [Example 4-9] | C (C represents pEC50 between and 9 and about 10, (EC50 between 1 nM and 0.1 nM)) |
| COC(=O)N[C@H](C(=O)N1CCC[C@H]1c1nc(-c2ccc(-c3cc(Cl)c(NC(=O)N4CCN(C5CCN(C(=O)[C@H]6CC6(C)C)CC5)CC4)cc3OC(F)(F)F)cc2)c[nH]1)C(C)C [Example 1-34] | C (C represents pEC50 between and 9 and about 10, (EC50 between 1 nM and 0.1 nM)) |
| COC(=O)N[C@H](C(=O)N1C[C@@H](C)C[C@H]1c1nc(-c2ccc(-c3cc(Cl)c(NC(=O)N4CCC(N5CCN(C(=O)OC(C)(C)C)[C@@H](C)C5)CC4)cc3OC(F)(F)F)cc2)c[nH]1)C(C)C [Example 4-1] | A (A represents a pEC50 value between 6 and 8 (EC50 between 1 μM and 10 nM)) |
| COC(=O)N[C@H](C(=O)N1C[C@@H](C)C[C@H]1c1nc(-c2ccc(-c3ccc(NC(=O)N4CCN(C5CCN(C(=O)OC(C)(C)C)CC5)CC4)cc3OC(F)(F)F)cc2)c(F)[nH]1)C(C)C [Example 2-28] | D (D represents pEC50>10 (EC50<0.1 nM)) |
| COC(=O)N[C@H](C(=O)N1CCC[C@H]1c1nc(-c2ccc(-c3ccc(NC(=O)N4CCN(C5CCN(C(=O)C(C)NC(N)=O)CC5)CC4)cc3OC(F)(F)F)cc2)c[nH]1)C(C)C (some centres unmarked) [Example 1-15] | B (B represents pEC50 between 8 and 9 (EC50 between 1 and 10 nM)) |
| CNC(=O)N1CCC(N2CCN(C(=O)Nc3ccc(-c4ccc(-c5c[nH]c(C6CCCN6C(=O)C(NC(=O)OC)C(C)C)n5)cc4)c(OC(F)(F)F)c3)CC2C)CC1 (centres unmarked) [Example 1-39] | B (B represents pEC50 between 8 and 9 (EC50 between 1 and 10 nM)) |
| COC(=O)N[C@H](C(=O)N1C[C@@H](C)C[C@H]1c1nc(-c2ccc(-c3cc(Cl)c(NC(=O)N4CCC(N5CCN(C(=O)[C@H]6CC6(C)C)CC5)CC4)cc3OC(F)(F)F)cc2)c[nH]1)C(C)C [Example 4-14] | C (C represents pEC50 between and 9 and about 10, (EC50 between 1 nM and 0.1 nM)) |
| CCN(CC)[C@@H](C(=O)N1CCC(N2CCN(C(=O)Nc3ccc(-c4ccc(-c5c[nH]c([C@@H]6CCCN6C(=O)[C@@H](NC(=O)OC)C(C)C)n5)cc4)c(OC(F)(F)F)c3)CC2)CC1)c1ccccc1 [Example 1-32] | A (A represents a pEC50 value between 6 and 8 (EC50 between 1 μM and 10 nM)) |
| COC(=O)N[C@H](C(=O)N1CCC[C@H]1c1nc(-c2ccc(-c3ccc(NC(=O)N4CCC(N5CCN(C(=O)OC(C)(C)C)[C@H](C)C5)CC4)cc3OC(F)(F)F)cc2)c[nH]1)C(C)C [Example 3-7] | B (B represents pEC50 between 8 and 9 (EC50 between 1 and 10 nM)) |
| COC(=O)N[C@H](C(=O)N1C[C@@H](C)C[C@H]1c1nc(-c2ccc(-c3cc(Cl)c(NC(=O)N4CCC(N5CCN(C(=O)C6CC6)CC5)CC4)cc3OC(F)(F)F)cc2)c[nH]1)C(C)C [Example 4-15] | B (B represents pEC50 between 8 and 9 (EC50 between 1 and 10 nM)) |
| COC(=O)N[C@H](C(=O)N1C[C@@H](C)C[C@H]1c1nc(-c2ccc(-c3ccc(NC(=O)N4CCC(N5CCN(C(=O)C(C)(C)C)CC5)CC4)cc3OC(F)(F)F)cc2)c[nH]1)C(C)C [Example 4-10] | C (C represents pEC50 between and 9 and about 10, (EC50 between 1 nM and 0.1 nM)) |
| COC(=O)N[C@H](C(=O)N1CCC[C@H]1c1nc(-c2ccc(-c3ccc(NC(=O)N4CCN(C5CCN(C(=O)c6c[nH]cn6)CC5)CC4)cc3)cc2)c[nH]1)C(C)C [Example 1-5] | B (B represents pEC50 between 8 and 9 (EC50 between 1 and 10 nM)) |
| COC(=O)N[C@H](C(=O)N1C[C@@H](C)C[C@H]1c1nc(-c2ccc(-c3cc(F)c(NC(=O)N4CCC(N5CCN(C(=O)C(C)(C)C)CC5)CC4)cc3OC(F)(F)F)cc2)c[nH]1)C(C)C [Example 4-7] | C (C represents pEC50 between and 9 and about 10, (EC50 between 1 nM and 0.1 nM)) |
| COC(=O)N[C@H](C(=O)N1CCC[C@H]1c1nc(-c2ccc(-c3ccc(NC(=O)N4CCN(C5CCN(C(=O)C67CC8CC(CC(O)(C8)C6)C7)CC5)CC4)cc3OC(F)(F)F)cc2)c[nH]1)C(C)C [Example 1-10] | B (B represents pEC50 between 8 and 9 (EC50 between 1 and 10 nM)) |
| COC(=O)N[C@H](C(=O)N1C[C@@H](C)C[C@H]1c1nc(-c2ccc(-c3ccc(NC(=O)N4CCN(C5CCN(C(=O)OC(C)(C)C)CC5)CC4)cc3OC(F)(F)F)cc2)c(Cl)[nH]1)C(C)C [Example 2-18] | C (C represents pEC50 between and 9 and about 10, (EC50 between 1 nM and 0.1 nM)) |
| COC(=O)N[C@H](C(=O)N1C[C@@H](C)C[C@H]1c1nc(-c2ccc(-c3ccc(NC(=O)N4CCN(C5CCN(C(=O)C6CC6)CC5)CC4)cc3OC(F)(F)F)cc2)c[nH]1)C(C)C [Example 2-1] | D (D represents pEC50>10 (EC50<0.1 nM)) |
| COC(=O)N[C@H](C(=O)N1C[C@@H](C)C[C@H]1c1nc(-c2ccc(-c3cc(Cl)c(NC(=O)N4CCN(C5CCN(C(=O)C6CC(F)(F)C6)CC5)CC4)cc3OC(F)(F)F)cc2)c[nH]1)C(C)C [Example 2-22] | B (B represents pEC50 between 8 and 9 (EC50 between 1 and 10 nM)) |
| COC(=O)N[C@H](C(=O)N1CCC[C@H]1c1nc(-c2ccc(-c3ccc(NC(=O)N4CCN(C5CCN(C(=O)OC(C)(C)C)CC5)C[C@H]4C)cc3OC(F)(F)F)cc2)c[nH]1)C(C)C [Example 1-19] | C (C represents pEC50 between and 9 and about 10, (EC50 between 1 nM and 0.1 nM)) |
| COC(=O)N[C@H](C(=O)N1C[C@@H](C)C[C@H]1c1nc(-c2ccc(-c3cc(Cl)c(NC(=O)N4CCN(C5CCN(C(=O)C6CC67CC7)CC5)CC4)cc3OC(F)(F)F)cc2)c[nH]1)C(C)C (some centres unmarked) [Example 2-24] | B (B represents pEC50 between 8 and 9 (EC50 between 1 and 10 nM)) |
| CNC(=O)N1CCC(N2CCN(C(=O)Nc3cc(OC(F)(F)F)c(-c4ccc(-c5c[nH]c([C@@H]6C[C@H](C)CN6C(=O)[C@@H](NC(=O)OC)C(C)C)n5)cc4)cc3F)CC2)CC1 [Example 2-4] | D (D represents pEC50>10 (EC50<0.1 nM)) |
